Assay results as given in the supplement of paper PMC11451515.

Test system: P12-Ichikawa
Assay: cell viability relative to DMSO control; higher = less cytotoxic
Details: 48 h
In short: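 NOMO1 or SEM (500 cells/well) or P12-Ichikawa (1000 cells/well) leukemia cells were adapted for at least four passages in each medium. They were seeded in 1536-well plates (5 μl) and pin-dosed with library compounds in DMSO over an 11-point threefold series, 47 μM to 0.79 nM. CellTiter-Glo One luminescence was read after 48 h at 37°C. Viability is the per-plate percentage relative to DMSO wells, with cell-free wells as background.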

[1] = HPLM + 10% dialyzed FBS, 0.000781 µM
[2] = HPLM + 10% dialyzed FBS, 0.00234 µM
[3] = HPLM + 10% dialyzed FBS, 0.00702 µM
[4] = HPLM + 10% dialyzed FBS, 0.0211 µM
[5] = HPLM + 10% dialyzed FBS, 0.0632 µM
[6] = HPLM + 10% dialyzed FBS, 0.19 µM
[7] = HPLM + 10% dialyzed FBS, 0.569 µM
[8] = HPLM + 10% dialyzed FBS, 1.71 µM
[9] = HPLM + 10% dialyzed FBS, 5.12 µM
[10] = HPLM + 10% dialyzed FBS, 15.4 µM
[11] = HPLM + 10% dialyzed FBS, 46.1 µM
[12] = RPMI 5 mM glucose + 10% FBS, 0.000781 µM
[13] = RPMI 5 mM glucose + 10% FBS, 0.00234 µM
[14] = RPMI 5 mM glucose + 10% FBS, 0.00702 µM
[15] = RPMI 5 mM glucose + 10% FBS, 0.0211 µM
[16] = RPMI 5 mM glucose + 10% FBS, 0.0632 µM
[17] = RPMI 5 mM glucose + 10% FBS, 0.19 µM
[18] = RPMI 5 mM glucose + 10% FBS, 0.569 µM
[19] = RPMI 5 mM glucose + 10% FBS, 1.71 µM
[20] = RPMI 5 mM glucose + 10% FBS, 5.12 µM
[21] = RPMI 5 mM glucose + 10% FBS, 15.4 µM
[22] = RPMI 5 mM glucose + 10% FBS, 46.1 µM
[23] = RPMI 5 mM glucose + 10% dialyzed FBS, 0.000781 µM
[24] = RPMI 5 mM glucose + 10% dialyzed FBS, 0.00234 µM
[25] = RPMI 5 mM glucose + 10% dialyzed FBS, 0.00702 µM
[26] = RPMI 5 mM glucose + 10% dialyzed FBS, 0.0211 µM
[27] = RPMI 5 mM glucose + 10% dialyzed FBS, 0.0632 µM
[28] = RPMI 5 mM glucose + 10% dialyzed FBS, 0.19 µM
[29] = RPMI 5 mM glucose + 10% dialyzed FBS, 0.569 µM
[30] = RPMI 5 mM glucose + 10% dialyzed FBS, 1.71 µM
[31] = RPMI 5 mM glucose + 10% dialyzed FBS, 5.12 µM
[32] = RPMI 5 mM glucose + 10% dialyzed FBS, 15.4 µM
[33] = RPMI 5 mM glucose + 10% dialyzed FBS, 46.1 µM

Row | Compound | cell viability [1] [%] | cell viability [2] [%] | cell viability [3] [%] | cell viability [4] [%] | cell viability [5] [%] | cell viability [6] [%] | cell viability [7] [%] | cell viability [8] [%] | cell viability [9] [%] | cell viability [10] [%] | cell viability [11] [%] | cell viability [12] [%] | cell viability [13] [%] | cell viability [14] [%] | cell viability [15] [%] | cell viability [16] [%] | cell viability [17] [%] | cell viability [18] [%] | cell viability [19] [%] | cell viability [20] [%] | cell viability [21] [%] | cell viability [22] [%] | cell viability [23] [%] | cell viability [24] [%] | cell viability [25] [%] | cell viability [26] [%] | cell viability [27] [%] | cell viability [28] [%] | cell viability [29] [%] | cell viability [30] [%] | cell viability [31] [%] | cell viability [32] [%] | cell viability [33] [%]
1 | OC[C@H]1O[C@H](C[C@@H]1O)N2/C=C(C(=O)NC2=O)/C(F)(F)F | 120 | 116 | 119 | 110 | 117 | 98 | 75.9 | 52.9 | 17.4 | 12.5 | 6.49 | 126 | 113 | 118 | 114 | 123 | 121 | 112 | 107 | 38.6 | 15.7 | 8.41 | 107 | 114 | 114 | 113 | 105 | 107 | 89.6 | 93.3 | 23.1 | 16.8 | 11.1
2 | Oc1cc(-c2nc(-c3ccccc3)[nH]c2-c2ccncc2)ccc1Cl | 109 | 110 | 110 | 115 | 118 | 117 | 106 | 101 | 92.7 | 82.9 | 65.7 | 122 | 111 | 117 | 122 | 119 | 118 | 111 | 113 | 84.7 | 74.5 | 45.2 | – | – | – | – | – | – | – | – | – | – | –
3 | COc1cc(NCc2ccc3nc(N)nc(N)c3c2C)cc(OC)c1OC | 88.8 | 88.8 | 95.8 | 101 | 99 | 94.4 | 79.4 | 62.2 | 32.9 | 24.7 | 14.7 | 82.4 | 91.7 | 86.1 | 91.5 | 96.4 | 88.4 | 96.1 | 87.8 | 68.6 | 58.9 | 1.49 | 73.2 | 82.4 | 82.7 | 87.5 | 96.2 | 87.6 | 88.3 | 85.9 | 65.7 | 26.1 | 1.75
4 | CNC[C@H](O)[C@@H](O)[C@H](O)[C@H](O)CO | 114 | 124 | 122 | 130 | 123 | 125 | 120 | 134 | 128 | 119 | 119 | – | – | – | – | – | – | – | – | – | – | – | 109 | 126 | 124 | 125 | 125 | 126 | 122 | 131 | 123 | 119 | 126
5 | C=CC(=O)Nc1cccc(Sc2nc(Nc3ccc(N4CCN(C)CC4)cc3)ncc2Cl)c1 | 105 | 108 | 109 | 112 | 107 | 121 | 122 | 118 | 115 | 118 | 22.2 | 95.7 | 107 | 113 | 121 | 116 | 122 | 120 | 115 | 124 | 117 | 19.2 | 104 | 115 | 110 | 114 | 118 | 120 | 123 | 124 | 123 | 126 | 26.3
6 | CCCOc1ccc(C(=O)OCCN(CC)CC)cc1N | 106 | 116 | 79.2 | 113 | 122 | 119 | 122 | 123 | 125 | 119 | 118 | 104 | 130 | 69.2 | 112 | 129 | 128 | 130 | 126 | 133 | 115 | 120 | 100 | 115 | 72.8 | 111 | 125 | 123 | 123 | 122 | 130 | 127 | 110
7 | COCCn1c2c([n+](Cc3cnccn3)c1C)C(=O)c1ccccc1C2=O | 116 | 115 | 113 | 112 | 104 | 51.4 | 41.9 | 15.8 | 5.02 | 2.55 | 1.1 | 110 | 108 | 118 | 106 | 112 | 48.9 | 17.6 | 6.76 | 3.92 | 3.27 | 2.14 | 113 | 108 | 112 | 110 | 106 | 51.4 | 11.7 | 5.22 | 3.6 | 2.56 | 1.9
8 | Oc1ccc(OCc2ccccc2)cc1 | 114 | 114 | 119 | 105 | 119 | 102 | 115 | 103 | 90.1 | 69.9 | 65.3 | 114 | 116 | 111 | 127 | 106 | 114 | 109 | 93.7 | 83.4 | 68.4 | 64.8 | 105 | 115 | 114 | 117 | 106 | 115 | 107 | 86.5 | 75.2 | 52.4 | 44.6
9 | O=C(c1cncc(Br)c1)N1CCC(N2CCCC2)CC1 | 107 | 97.4 | 106 | 103 | 105 | 99.9 | 100 | 101 | 100 | 95.1 | 89.9 | 93.6 | 99.7 | 100 | 95.9 | 98.2 | 96.7 | 100 | 94 | 103 | 92.5 | 90.3 | 95.9 | 102 | 99.6 | 99.6 | 95.2 | 95.1 | 96.7 | 100 | 92 | 87.1 | 92
10 | CC1(C)SCCN([S+](=O)([O-])c2ccc(OCC#CCO)cc2)[C@H]1C(=O)NO | 103 | 108 | 107 | 98.9 | 104 | 103 | 98.5 | 90.9 | 91.2 | 93.4 | 95.1 | 106 | 95.5 | 101 | 98.7 | 101 | 95.8 | 104 | 87.5 | 87.9 | 80.6 | 89.2 | 97 | 97.7 | 101 | 103 | 89.8 | 88.3 | 88.1 | 91.9 | 86.9 | 85.4 | 83.6
11 | COc1c(Cl)cc2c([nH]c3cnccc32)c1NC(=O)c1cccnc1C | 103 | 99.3 | 102 | 106 | 107 | 109 | 99 | 99.1 | 94.9 | 94.7 | 93.1 | 107 | 105 | 107 | 108 | 112 | 108 | 96.1 | 105 | 110 | 105 | 96.9 | 102 | 110 | 104 | 96.9 | 106 | 106 | 97.7 | 94.1 | 95.4 | 95.6 | 82.8
12 | CC1(C)CC\C2=C(/O1)C3=C(C=CC=C3)C(=O)C2=O | 112 | 118 | 114 | 116 | 106 | 111 | 110 | 102 | 104 | 99.4 | 2.4 | 113 | 106 | 94.9 | 102 | 112 | 109 | 105 | 98.3 | 105 | 90.5 | 0.954 | 107 | 119 | 100 | 101 | 108 | 96.6 | 109 | 89.2 | 102 | 94.9 | 1.41
13 | CCC(CCCC)COC(=O)C(\C#N)=C(\c1ccccc1)c2ccccc2 (stereo not given) | 95.6 | 100 | 102 | 99.3 | 106 | 108 | 112 | 107 | 113 | 107 | 99.3 | 89.8 | 95.7 | 95.2 | 96.3 | 110 | 104 | 106 | 99.2 | 95.2 | 102 | 94.5 | 87.1 | 84.2 | 97.6 | 98.5 | 98.8 | 97.2 | 101 | 99.5 | 97.3 | 99.1 | 95.9
14 | Cc1c(N)nc([C@H](CC(N)=O)NC[C@@H](N)C(N)=O)nc1C(=O)N[C@H](C(=O)N[C@@H](C)[C@H](O)[C@@H](C)C(=O)N[C@@H](C(=O)NCCc1nc(-c2nc(C(=O)NCCC[S+](C)C)cs2)cs1)[C@@H](C)O)C(O[C@H]1O[C@H](CO)[C@H](O)[C@@H](O)[C@H]1O[C@H]1O[C@H](CO)[C@@H](O)[C@H](OC(N)=O)[C@@H]1O)c1c[nH]cn1 (stereo not given in full) | 112 | 114 | 108 | 108 | 111 | 120 | 110 | 96.6 | 78 | 28.3 | 40.9 | 103 | 102 | 112 | 114 | 104 | 109 | 105 | 67.3 | 51.5 | 21.4 | 37 | 102 | 103 | 108 | 103 | 105 | 109 | 107 | 91.6 | 82.1 | 37.2 | 44.6
